Assay results taken from ChEMBL document CHEMBL5247592, “Discovery of novel VEGFR-2-PROTAC degraders based on the localization of lysine residues via recruiting VHL for the treatment of gastric cancer” (Eur J Med Chem, 2022).
pEC50: −log10 of the molar value. The source made the active and inactive calls. The calls are words filed in the database; no cut-off is given here.

How the values were obtained:
[1] = biological target: T1, von Hippel-Lindau disease tumor suppressor/Vascular endothelial growth factor receptor 2 (Homo sapiens, UniProt P35968+P40337); assay: PROTAC activity at VHL/VEGFR2 in human HGC-27 cells assessed as half-life of intracellular VEGFR2 protein […] at 1 uM measured upto 24 hrs in the presence of cycloheximide by Western blot analysis (reference value: 5.45 hrs); format: cell-based
Target sequence in this assay (P35968 20-1356 limits assumed): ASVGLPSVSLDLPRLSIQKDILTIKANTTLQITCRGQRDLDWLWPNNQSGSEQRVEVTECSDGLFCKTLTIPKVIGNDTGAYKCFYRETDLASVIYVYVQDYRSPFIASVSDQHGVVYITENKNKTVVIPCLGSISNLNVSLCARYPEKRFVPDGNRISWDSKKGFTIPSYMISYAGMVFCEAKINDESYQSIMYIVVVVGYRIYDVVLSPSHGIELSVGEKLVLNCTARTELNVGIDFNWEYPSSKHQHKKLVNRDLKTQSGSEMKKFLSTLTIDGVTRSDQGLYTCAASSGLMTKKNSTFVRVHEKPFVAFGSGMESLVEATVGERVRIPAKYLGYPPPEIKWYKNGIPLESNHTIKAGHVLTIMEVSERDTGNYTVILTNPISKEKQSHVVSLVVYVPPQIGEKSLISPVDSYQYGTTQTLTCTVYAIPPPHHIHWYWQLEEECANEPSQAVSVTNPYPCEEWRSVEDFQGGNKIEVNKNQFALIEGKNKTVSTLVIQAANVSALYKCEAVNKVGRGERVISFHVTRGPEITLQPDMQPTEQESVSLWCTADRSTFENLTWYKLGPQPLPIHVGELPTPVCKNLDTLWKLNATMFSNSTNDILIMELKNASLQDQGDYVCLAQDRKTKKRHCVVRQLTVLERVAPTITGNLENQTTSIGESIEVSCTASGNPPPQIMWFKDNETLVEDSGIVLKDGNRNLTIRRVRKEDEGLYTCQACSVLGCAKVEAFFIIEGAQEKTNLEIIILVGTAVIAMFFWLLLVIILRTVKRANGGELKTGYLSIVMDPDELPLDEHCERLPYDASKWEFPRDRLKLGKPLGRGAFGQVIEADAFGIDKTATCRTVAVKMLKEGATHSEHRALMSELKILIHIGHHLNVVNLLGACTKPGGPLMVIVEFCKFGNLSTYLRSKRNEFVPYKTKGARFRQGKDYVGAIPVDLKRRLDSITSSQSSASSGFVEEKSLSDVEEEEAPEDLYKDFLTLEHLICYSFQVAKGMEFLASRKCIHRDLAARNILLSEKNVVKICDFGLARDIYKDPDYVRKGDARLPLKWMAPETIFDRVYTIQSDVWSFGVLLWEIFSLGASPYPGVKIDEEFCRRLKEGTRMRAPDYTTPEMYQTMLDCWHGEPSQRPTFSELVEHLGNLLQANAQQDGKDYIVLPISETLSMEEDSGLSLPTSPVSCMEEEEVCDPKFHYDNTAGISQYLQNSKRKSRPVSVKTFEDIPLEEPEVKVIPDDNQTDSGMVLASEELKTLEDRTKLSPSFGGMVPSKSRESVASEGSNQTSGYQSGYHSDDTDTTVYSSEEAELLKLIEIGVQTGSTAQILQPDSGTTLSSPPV
Target sequence in this assay (P40337 whole entry partner): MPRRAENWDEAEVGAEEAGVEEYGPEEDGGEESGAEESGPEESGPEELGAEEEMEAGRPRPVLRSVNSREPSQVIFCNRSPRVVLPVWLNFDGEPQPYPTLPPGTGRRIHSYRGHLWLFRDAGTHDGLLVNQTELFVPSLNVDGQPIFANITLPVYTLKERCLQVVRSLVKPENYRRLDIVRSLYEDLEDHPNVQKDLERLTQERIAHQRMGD

[2] = biological target: T1, von Hippel-Lindau disease tumor suppressor/Vascular endothelial growth factor receptor 2; assay: PROTAC activity at VHL/VEGFR2 in human HGC-27 cells assessed as induction of VEGFR2 degradation at 1 uM measured after 8 hrs by Western blot analysis relative to control; format: cell-based
Target sequence in this assay (P35968 20-1356 limits assumed): as the sequence (P35968 20-1356 limits assumed) above
Target sequence in this assay (P40337 whole entry partner): as the sequence (P40337 whole entry partner) above

[3] = system: HGC-27; assay: Induction of apoptosis in human HGC-27 cells assessed as necrotic cells at 0.1 uM incubated for 24 hrs by Annexin V-FITC/PI staining based analysis (reference value: 0.65 %); format: functional
[4] = biological target: T1, von Hippel-Lindau disease tumor suppressor/Vascular endothelial growth factor receptor 2; assay: PROTAC activity at VHL/VEGFR2 in human HGC-27 cells assessed as residual activity by measuring VEGFR2 expression level at 1 uM incubated for 24 hrs followed by compound washout and measured after 8 hrs by Western blot analysis relative to control; format: cell-based
Target sequence in this assay (P35968 20-1356 limits assumed): as the sequence (P35968 20-1356 limits assumed) above
Target sequence in this assay (P40337 whole entry partner): as the sequence (P40337 whole entry partner) above

[5] = system: HGC-27; assay: Induction of cell cycle arrest in human HGC-27 cells assessed as G2/M phase cells at 1 uM incubated for 24 hrs by PI staining based flow cytometric analysis (reference value: 13.3%); format: functional
[6] = Cytotoxicity against human GES1 cells assessed as inhibition of cell growth incubated for 72 hrs by MTT assay; format: toxicity, cell-based
[7] = system: HGC-27; assay: Induction of apoptosis in human HGC-27 cells assessed as viable cells at 0.1 uM incubated for 24 hrs by Annexin V-FITC/PI staining based analysis (reference value: 95.3%); format: functional; details: read-out: Activity
[8] = system: HGC-27; assay: Induction of cell cycle arrest in human HGC-27 cells assessed as S phase cells at 0.033 uM incubated for 24 hrs by PI staining based flow cytometric analysis (reference value: 26.4%); format: functional
[9] = system: HGC-27; assay: Induction of apoptosis in human HGC-27 cells assessed as necrotic cells at 1 uM incubated for 24 hrs by Annexin V-FITC/PI staining based analysis (reference value: 0.65 %); format: functional
[10] = biological target: T1, von Hippel-Lindau disease tumor suppressor/Vascular endothelial growth factor receptor 2; assay: PROTAC activity at VHL/VEGFR2 in human HGC-27 cells assessed as reduction in VEGFR2 protein level incubated for 24 hrs by Western blot analysis; format: cell-based
Target sequence in this assay (P35968 whole entry): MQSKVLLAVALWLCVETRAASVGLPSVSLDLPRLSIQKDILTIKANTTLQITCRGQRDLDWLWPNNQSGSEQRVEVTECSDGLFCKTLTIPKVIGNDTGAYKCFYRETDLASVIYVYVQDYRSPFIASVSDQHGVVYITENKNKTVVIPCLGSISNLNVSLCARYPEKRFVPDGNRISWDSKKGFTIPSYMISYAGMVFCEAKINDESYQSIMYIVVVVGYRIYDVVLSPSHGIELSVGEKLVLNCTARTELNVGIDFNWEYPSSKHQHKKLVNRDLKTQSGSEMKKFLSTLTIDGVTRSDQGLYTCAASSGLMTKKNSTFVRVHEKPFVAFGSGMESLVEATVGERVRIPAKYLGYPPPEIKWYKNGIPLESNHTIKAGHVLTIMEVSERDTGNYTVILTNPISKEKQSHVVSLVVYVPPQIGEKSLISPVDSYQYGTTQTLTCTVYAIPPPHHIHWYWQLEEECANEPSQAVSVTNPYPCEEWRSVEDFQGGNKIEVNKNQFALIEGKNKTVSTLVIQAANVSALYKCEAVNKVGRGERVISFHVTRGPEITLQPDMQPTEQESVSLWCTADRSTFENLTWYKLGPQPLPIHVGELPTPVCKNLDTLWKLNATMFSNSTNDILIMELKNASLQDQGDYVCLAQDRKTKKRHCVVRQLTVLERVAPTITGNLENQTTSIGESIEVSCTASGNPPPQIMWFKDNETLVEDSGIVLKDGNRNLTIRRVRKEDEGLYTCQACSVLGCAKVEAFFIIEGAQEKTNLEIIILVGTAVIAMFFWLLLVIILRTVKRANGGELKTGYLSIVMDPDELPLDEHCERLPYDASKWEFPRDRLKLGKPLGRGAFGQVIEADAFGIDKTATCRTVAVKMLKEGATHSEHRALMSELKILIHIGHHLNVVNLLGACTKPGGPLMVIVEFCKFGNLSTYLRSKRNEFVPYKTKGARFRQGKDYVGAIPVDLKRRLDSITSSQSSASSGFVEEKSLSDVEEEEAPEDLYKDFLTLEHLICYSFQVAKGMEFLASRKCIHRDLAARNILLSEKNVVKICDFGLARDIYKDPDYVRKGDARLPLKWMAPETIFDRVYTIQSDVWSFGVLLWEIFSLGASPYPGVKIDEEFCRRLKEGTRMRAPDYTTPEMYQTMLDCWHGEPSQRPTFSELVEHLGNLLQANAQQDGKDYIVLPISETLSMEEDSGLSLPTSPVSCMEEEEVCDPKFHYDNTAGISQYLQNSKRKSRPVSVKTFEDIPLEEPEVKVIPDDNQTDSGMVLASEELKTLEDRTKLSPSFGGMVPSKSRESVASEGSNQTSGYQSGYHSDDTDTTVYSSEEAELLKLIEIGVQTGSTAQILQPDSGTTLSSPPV
Target sequence in this assay (P40337 whole entry): as the sequence (P40337 whole entry partner) above

[11] = system: HGC-27; assay: Inhibition of colony formation in human HGC-27 cells at 1 to 3.33 uM incubated for 8 days by crystal violet staining based analysis relative to control; format: functional; details: dose 1-3.33 µM, time 8 day
[12] = system: HGC-27; assay: Induction of cell cycle arrest in human HGC-27 cells assessed as S phase cells at 0.1 uM incubated for 24 hrs by PI staining based flow cytometric analysis (reference value: 26.4%); format: functional
[13] = biological target: T1, von Hippel-Lindau disease tumor suppressor/Vascular endothelial growth factor receptor 2; assay: PROTAC activity at VHL/VEGFR2 in human HGC-27 cells assessed as reduction in relative VEGRF2 expression level at 1 uM preincubated with MLN4924 for 2 hrs followed by compound addition and measured after 24 hrs by Western blot analysis; format: cell-based
Target sequence in this assay (P35968 20-1356 limits assumed): as the sequence (P35968 20-1356 limits assumed) above
Target sequence in this assay (P40337 whole entry partner): as the sequence (P40337 whole entry partner) above

[14] = system: HGC-27; assay: Antiinvasive activity in human HGC-27 cells assessed as reduction in number of invasive cells at 3.33 uM incubated for 24 hrs by transwell invasion assay (reference value: 118); format: functional
[15] = system: HGC-27; assay: Antiinvasive activity in human HGC-27 cells assessed as reduction in number of invasive cells at 1 uM incubated for 24 hrs by transwell invasion assay (reference value: 118); format: functional
[16] = biological target: T1, von Hippel-Lindau disease tumor suppressor/Vascular endothelial growth factor receptor 2; assay: PROTAC activity at VHL/VEGFR2 in human HGC-27 cells assessed as induction of VEGFR2 degradation at 1 uM measured after 36 hrs by Western blot analysis relative to control; format: cell-based
Target sequence in this assay (P35968 20-1356 limits assumed): as the sequence (P35968 20-1356 limits assumed) above
Target sequence in this assay (P40337 whole entry partner): as the sequence (P40337 whole entry partner) above

[17] = system: HGC-27; assay: Inhibition of cell migration in human HGC-27 cells assessed as suppression of cell migration at 1 uM incubated for 6 hrs by wound healing assay relative to control; format: functional
[18] = biological target: T1, von Hippel-Lindau disease tumor suppressor/Vascular endothelial growth factor receptor 2; assay: PROTAC activity at VHL/VEGFR2 in human HGC-27 cells assessed as induction of VEGFR2 degradation at 1 uM measured after 24 hrs by Western blot analysis relative to control; format: cell-based
Target sequence in this assay (P35968 20-1356 limits assumed): as the sequence (P35968 20-1356 limits assumed) above
Target sequence in this assay (P40337 whole entry partner): as the sequence (P40337 whole entry partner) above

[19] = system: HGC-27; assay: Inhibition of cell migration in human HGC-27 cells assessed as suppression of cell migration at 1 uM incubated for 24 hrs by wound healing assay relative to control; format: functional
[20] = system: HGC-27; assay: Induction of apoptosis in human HGC-27 cells assessed as late apoptotic cells at 1 uM incubated for 24 hrs by Annexin V-FITC/PI staining based analysis (reference value: 3%); format: functional
[21] = system: HGC-27; assay: Induction of cell cycle arrest in human HGC-27 cells assessed as S phase cells at 3.33 uM incubated for 24 hrs by PI staining based flow cytometric analysis (reference value: 26.4%); format: functional
[22] = system: HGC-27; assay: Induction of cell cycle arrest in human HGC-27 cells assessed as G2/M phase cells at 0.033 uM incubated for 24 hrs by PI staining based flow cytometric analysis (reference value: 13.3%); format: functional
[23] = biological target: T1, von Hippel-Lindau disease tumor suppressor/Vascular endothelial growth factor receptor 2; assay: PROTAC activity at VHL/VEGFR2 in human HGC-27 cells assessed as reduction in VEGFR2 protein expression at 1 uM measured upto 24 hrs in the presence of cycloheximide by Western blot analysis; format: cell-based
[24] = system: HGC-27; assay: Induction of apoptosis in human HGC-27 cells assessed as early apoptotic cells at 0.33 uM incubated for 24 hrs by Annexin V-FITC/PI staining based analysis (reference value: 1.7 %); format: functional
[25] = system: HGC-27; assay: Induction of apoptosis in human HGC-27 cells assessed as necrotic cells at 0.33 uM incubated for 24 hrs by Annexin V-FITC/PI staining based analysis (reference value: 0.65 %); format: functional
[26] = system: HGC-27; assay: Inhibition of cell migration in human HGC-27 cells assessed as suppression of cell migration at 3.3 uM incubated for 24 hrs by wound healing assay relative to control; format: functional
[27] = system: HGC-27; assay: Induction of apoptosis in human HGC-27 cells assessed as viable cells at 0.033 uM incubated for 24 hrs by Annexin V-FITC/PI staining based analysis (reference value: 95.3%); format: functional; details: read-out: Activity
[28] = biological target: T1, von Hippel-Lindau disease tumor suppressor/Vascular endothelial growth factor receptor 2; assay: PROTAC activity at VHL/VEGFR2 in HUVEC cells assessed as reduction in VEGFR2 protein level at 10 uM incubated for 24 hrs by Western blot analysis; format: cell-based
[29] = biological target: T1, von Hippel-Lindau disease tumor suppressor/Vascular endothelial growth factor receptor 2; assay: PROTAC activity at VHL/VEGFR2 in HUVEC cells assessed as reduction in VEGFR2 protein level incubated for 24 hrs by Western blot analysis; format: cell-based
[30] = system: HGC-27; assay: Induction of cell cycle arrest in human HGC-27 cells assessed as G0/G1 phase cells at 1 uM incubated for 24 hrs by PI staining based flow cytometric analysis (reference value: 47.4%); format: functional
[31] = biological target: T1, von Hippel-Lindau disease tumor suppressor/Vascular endothelial growth factor receptor 2; assay: PROTAC activity at VHL/VEGFR2 in human HGC-27 cells assessed as reduction in relative VEGRF2 expression level at 1 uM preincubated with MG-132 for 2 hrs followed by compound addition and measured after 24 hrs by Western blot analysis; format: cell-based
[32] = biological target: T1, von Hippel-Lindau disease tumor suppressor/Vascular endothelial growth factor receptor 2; assay: PROTAC activity at VHL/VEGFR2 in human HGC-27 cells assessed as induction of VEGRF2 protein degradation at 1 uM preincubated with VH032 for 2 hrs followed by compound addition and measured after 24 hrs by Western blot analysis; format: cell-based

With `Cc1ccc(NC(=O)Cn2cc(-c3ccc4c(NC(=O)c5ccc(NC(=O)CCCCCCCCC(=O)N[C@H](C(=O)N6C[C@H](O)C[C@H]6C(=O)NCc6ccc(-c7scnc7C)cc6)C(C)(C)C)cc5)n[nH]c4c3)cn2)cc1C(F)(F)F` the T1/2 [1] was 5.45 h, the Activity [2] was 18.2% and the Activity [3] was 0.46%. For the same compound, the Activity [4] was 46%, the Activity [5] was 45.9% and the IC50 at 72 h [6] was 20000 nM. The viability at 0.1 µM [7] was 92.1%, the Activity [8] was 27.9% and the Activity [9] was 0.64%. For the same compound, the pEC50 [10] was 7.08, the “inhibition (INH)” value [11] was 100% and the Activity [12] was 25.8%. For the same compound, the Activity [13] was “inactive”, the Activity [14] was 4 and the Activity [15] was 11. For the same compound, the Activity [16] was 60.6%, the inhibition at 1 µM [17] was 11.7% and the Activity [18] was 51.4%. It also gave an inhibition at 1 µM [19] of 21.2%, an Activity [20] of 14.2% and an Activity [21] of 21.2%. The Activity [22] was 15.7%, the Activity [23] was “Active” and the Activity [24] was 3.2%. It also gave an Activity [25] of 0.96%, an inhibition at 3.3 µM [26] of 32.7% and a viability at 0.033 µM [27] of 93%. For the same compound, the Activity [28] was “inactive”, the Activity [29] was “Dose-Dependent Effect” and the pEC50 [29] was 6.29. For the same compound, the Activity [30] was 12.5%, the Activity [31] was “inactive” and the Activity [32] was “inactive”.
